From PubChem BioAssay (NCI)
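At the GI50, growth is halved. At the TGI there is no net growth.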

Legend:
Assay in all cases: NCI anticancer screen, dose series, 384-well format
[1] = tested on: 786-0 renal
[2] = tested on: A498 renal
[3] = tested on: A549 NSCLC
[4] = tested on: ACHN renal
[5] = tested on: BT-549 breast
[6] = tested on: CAKI-1 renal
[7] = tested on: CCRF-CEM leukemia
[8] = tested on: COLO 205 colon
[9] = tested on: DU-145 prostate
[10] = tested on: EKVX NSCLC
[11] = tested on: HCC-2998 colon
[12] = tested on: HCT-116 colon
[13] = tested on: HCT-15 colon
[14] = tested on: HL-60(TB) leukemia
[15] = tested on: HOP-62 NSCLC
[16] = tested on: HOP-92 NSCLC
[17] = tested on: HS 578T breast
[18] = tested on: HT29 colon
[19] = tested on: IGROV1 ovarian
[20] = tested on: K-562 leukemia
[21] = tested on: KM12 colon
[22] = tested on: LOX IMVI melanoma
[23] = tested on: M14 melanoma
[24] = tested on: MALME-3M melanoma
[25] = tested on: MCF7 breast
[26] = tested on: MDA-MB-231 breast
[27] = tested on: MDA-MB-435 melanoma
[28] = tested on: MDA-MB-468 breast
[29] = tested on: MOLT-4 leukemia
[30] = tested on: NCI-H226 lung
[31] = tested on: NCI-H23 lung
[32] = tested on: NCI-H322M lung
[33] = tested on: NCI-H460 NSCLC
[34] = tested on: NCI-H522 lung
[35] = tested on: NCI/ADR-RES ovarian
[36] = tested on: OVCAR-3 ovarian
[37] = tested on: OVCAR-4 ovarian
[38] = tested on: OVCAR-5 ovarian
[39] = tested on: OVCAR-8 ovarian
[40] = tested on: PC-3 prostate
[41] = tested on: RPMI-8226 leukemia
[42] = tested on: RXF 393 renal
[43] = tested on: SF-268 CNS
[44] = tested on: SF-295 CNS
[45] = tested on: SF-539 CNS
[46] = tested on: SK-MEL-28 melanoma
[47] = tested on: SK-MEL-5 melanoma
[48] = tested on: SK-OV-3 ovarian
[49] = tested on: SN12C renal
[50] = tested on: SNB-19 CNS
[51] = tested on: SNB-75 CNS
[52] = tested on: SW-620 colon
[53] = tested on: T-47D breast
[54] = tested on: TK-10 renal
[55] = tested on: U251 glioblastoma
[56] = tested on: UACC-257 melanoma
[57] = tested on: UACC-62 melanoma
[58] = tested on: UO-31 renal

Structure (SMILES): CCCCCCCC/C=C/CCCCCCCC(=O)OC[C@H]1O[C@@H](n2ccc(N)nc2=O)C(F)(F)[C@@H]1O
- GI50 [1]: < 10 nM
- TGI [1]: < 10 nM
- GI50 [2]: < 10 nM
- TGI [2]: 14900 nM
- GI50 [3]: < 10 nM
- TGI [3]: 11900 nM
- GI50 [4]: < 10 nM
- TGI [4]: < 10 nM
- GI50 [5]: < 10 nM
- TGI [5]: < 10 nM
- GI50 [6]: < 10 nM
- TGI [6]: 2990 nM
- GI50 [7]: < 10 nM
- TGI [7]: < 10 nM
- GI50 [8]: < 10 nM
- TGI [8]: 49.6 nM
- GI50 [9]: < 10 nM
- TGI [9]: 2390 nM
- GI50 [10]: 57.6 nM
- TGI [10]: 15400 nM
- GI50 [11]: < 10 nM
- TGI [11]: 11.1 nM
- GI50 [12]: < 10 nM
- TGI [12]: 10200 nM
- GI50 [13]: < 10 nM
- TGI [13]: 59700 nM
- GI50 [14]: < 10 nM
- TGI [14]: < 10 nM
- GI50 [15]: < 10 nM
- TGI [15]: < 10 nM
- GI50 [16]: 10.5 nM
- TGI [16]: 22400 nM
- GI50 [17]: < 10 nM
- TGI [17]: 16500 nM
- GI50 [18]: < 10 nM
- TGI [18]: 8700 nM
- GI50 [19]: < 10 nM
- TGI [19]: 81400 nM
- GI50 [20]: < 10 nM
- TGI [20]: 15000 nM
- GI50 [21]: < 10 nM
- TGI [21]: 15300 nM
- GI50 [22]: < 10 nM
- TGI [22]: 18.8 nM
- GI50 [23]: < 10 nM
- TGI [23]: < 10 nM
- GI50 [24]: < 10 nM
- TGI [24]: 15100 nM
- GI50 [25]: < 10 nM
- TGI [25]: 14100 nM
- GI50 [26]: 234 nM
- TGI [26]: 13500 nM
- GI50 [27]: 138 nM
- TGI [27]: 15600 nM
- GI50 [28]: < 10 nM
- TGI [28]: < 10 nM
- GI50 [29]: < 10 nM
- TGI [29]: < 10 nM
- GI50 [30]: 24.8 nM
- TGI [30]: 83.2 nM
- GI50 [31]: < 10 nM
- TGI [31]: < 10 nM
- GI50 [32]: 1310 nM
- TGI [32]: > 100000 nM
- GI50 [33]: < 10 nM
- TGI [33]: < 10 nM
- GI50 [34]: < 10 nM
- TGI [34]: 2220 nM
- GI50 [35]: < 10 nM
- TGI [35]: < 10 nM
- GI50 [36]: < 10 nM
- TGI [36]: 16700 nM
- GI50 [37]: 38800 nM
- TGI [37]: > 100000 nM
- GI50 [38]: < 10 nM
- TGI [38]: > 100000 nM
- GI50 [39]: < 10 nM
- TGI [39]: < 10 nM
- GI50 [40]: 2050 nM
- TGI [40]: 35600 nM
- GI50 [41]: < 10 nM
- TGI [41]: < 10 nM
- GI50 [42]: < 10 nM
- TGI [42]: 90.2 nM
- GI50 [43]: < 10 nM
- TGI [43]: < 10 nM
- GI50 [44]: < 10 nM
- TGI [44]: 18.5 nM
- GI50 [45]: < 10 nM
- TGI [45]: < 10 nM
- GI50 [46]: < 10 nM
- TGI [46]: 51500 nM
- GI50 [47]: < 10 nM
- TGI [47]: 24.7 nM
- GI50 [48]: < 10 nM
- TGI [48]: 2420 nM
- GI50 [49]: < 10 nM
- TGI [49]: 39.9 nM
- GI50 [50]: < 10 nM
- TGI [50]: 518 nM
- GI50 [51]: < 10 nM
- TGI [51]: 49.2 nM
- GI50 [52]: < 10 nM
- TGI [52]: 46000 nM
- GI50 [53]: < 10 nM
- TGI [53]: 1560 nM
- GI50 [54]: > 100000 nM
- TGI [54]: > 100000 nM
- GI50 [55]: < 10 nM
- TGI [55]: < 10 nM
- GI50 [56]: < 10 nM
- TGI [56]: 92 nM
- GI50 [57]: < 10 nM
- TGI [57]: < 10 nM
- GI50 [58]: < 10 nM
- TGI [58]: < 10 nM
